Measurements from patent US20100298141A1, “SUBSTITUTED PYRIDINE N-OXIDE HERBICIDES” (E. I. DU PONT DE NEMOURS AND COMPANY, priority 2007, published 2010).

Key:
[1] = test system: barnyardgrass; assay: Test A pre-/postemergence greenhouse test; assay type: in vivo, Echinochloa crus-galli; conditions: for Barnyardgrass plant response rating: 0 to 100 scale; for Plant response rating, Barnyardgrass: 0 to 100 scale where 0 is no effect and 100 is complete control
Outline: (§1)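 Each test compound, dissolved in a non-phytotoxic solvent mixture with surfactant, was sprayed directly onto seeded soil (loam/sand blend) and, at the same moment, onto seedlings carrying one to two leaves. Around ten greenhouse days later, plants were rated visually for injury relative to untreated controls.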

[2] = test system: redroot pigweed; assay: Test A pre-/postemergence greenhouse test; assay type: in vivo, Amaranthus retroflexus; conditions: for Pigweed plant response rating: 0 to 100 scale; for Plant response rating, Pigweed: 0 to 100 scale where 0 is no effect and 100 is complete control
Outline: as §1

[3] = test system: velvetleaf; assay: Test A pre-/postemergence greenhouse test; assay type: in vivo, Abutilon theophrasti; conditions: for Velvetleaf plant response rating: 0 to 100 scale; for Plant response rating, Velvetleaf: 0 to 100 scale where 0 is no effect and 100 is complete control
Outline: as §1

[4] = test system: downy brome; assay: Test C pre-/postemergence test; assay type: in vivo, Bromus tectorum; conditions: for Plant response rating, Bromegrass, Downy: 31 g ai/ha, scale 0 to 100 (0 no effect, 100 complete control); for Plant response rating (0 to 100), Bromegrass, Downy: 250 g ai/ha
Outline: (§2)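 Test chemicals were formulated with surfactant in a non-phytotoxic solvent and sprayed both on freshly planted seeds (preemergence) and on 1- to 4-leaf plants of 2–18 cm (postemergence). Flooded-paddy pots received compound directly into 3 cm of standing water, maintained for the test.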

[5] = test system: green foxtail; assay: Test C pre-/postemergence test; assay type: in vivo, Setaria viridis; conditions: Preemergence; for Foxtail, Green plant response rating: 62 g ai/ha, scale 0 to 100; for Plant response rating, Foxtail, Green: 31 g ai/ha, scale 0 to 100 (0 no effect, 100 complete control)
Outline: as §2

[6] = test system: wild oat; assay: Test C pre-/postemergence test; assay type: in vivo, Avena fatua; conditions: Preemergence; for Oat, Wild plant response rating: 62 g ai/ha, scale 0 to 100; for Plant response rating, Oat, Wild: 31 g ai/ha, scale 0 to 100 (0 no effect, 100 complete control)
Outline: as §2

[7] = test system: Surinam grass; assay: Test C pre-/postemergence test; assay type: in vivo, Brachiaria decumbens; conditions: Preemergence; for Surinam Grass plant response rating: 62 g ai/ha, scale 0 to 100; for Plant response rating, Surinam Grass: 31 g ai/ha, scale 0 to 100 (0 no effect, 100 complete control)
Outline: as §2

[8] = test system: cocklebur; assay: Test C pre-/postemergence test; assay type: in vivo, Xanthium strumarium; conditions: for Plant response rating, Cocklebur: 31 g ai/ha, scale 0 to 100 (0 no effect, 100 complete control); for Plant response rating (0 to 100), Cocklebur: 250 g ai/ha
Outline: as §2

[9] = test system: crabgrass; assay: Test C pre-/postemergence test; assay type: in vivo, Digitaria sanguinalis; conditions: Preemergence; for Crabgrass, Large plant response rating: 62 g ai/ha, scale 0 to 100; for Plant response rating, Crabgrass, Large: 31 g ai/ha, scale 0 to 100 (0 no effect, 100 complete control); for Plant response rating (0 to 100), Crabgrass, Large: 250 g ai/ha
Outline: as §2

[10] = test system: giant foxtail; assay: Test C pre-/postemergence test; assay type: in vivo, Setaria faberii; conditions: Preemergence; for Foxtail, Giant plant response rating: 62 g ai/ha, scale 0 to 100; for Plant response rating, Foxtail, Giant: 31 g ai/ha, scale 0 to 100 (0 no effect, 100 complete control); for Plant response rating (0 to 100), Foxtail, Giant: 250 g ai/ha
Outline: as §2

[11] = test system: johnsongrass; assay: Test C pre-/postemergence test; assay type: in vivo, Sorghum halepense; conditions: Preemergence; for Johnsongrass plant response rating: 62 g ai/ha, scale 0 to 100; for Plant response rating, Johnsongrass: 31 g ai/ha, scale 0 to 100 (0 no effect, 100 complete control); for Plant response rating (0 to 100), Johnsongrass: 250 g ai/ha
Outline: as §2

[12] = test system: kochia; assay: Test C pre-/postemergence test; assay type: in vivo, Kochia scoparia; conditions: Preemergence; for Kochia plant response rating: 62 g ai/ha, scale 0 to 100; for Plant response rating, Kochia: 31 g ai/ha, scale 0 to 100 (0 no effect, 100 complete control)
Outline: as §2

[13] = test system: lambsquarters; assay: Test C pre-/postemergence test; assay type: in vivo, Chenopodium album; conditions: Preemergence; for Lambsquarters plant response rating: 62 g ai/ha, scale 0 to 100
Outline: as §2

[14] = test system: eastern black nightshade; assay: Test C pre-/postemergence test; assay type: in vivo, Solanum ptycanthum; conditions: Preemergence; for Nightshade plant response rating: 62 g ai/ha, scale 0 to 100; for Plant response rating, Nightshade: 31 g ai/ha, scale 0 to 100 (0 no effect, 100 complete control)
Outline: as §2

[15] = test system: common ragweed; assay: Test C pre-/postemergence test; assay type: in vivo, Ambrosia elation; conditions: Preemergence; for Ragweed plant response rating: 62 g ai/ha, scale 0 to 100
Outline: as §2

[16] = test system: velvetleaf; assay: Test C pre-/postemergence test; assay type: in vivo, Abutilon theophrasti; conditions: Preemergence; for Velvetleaf plant response rating: 62 g ai/ha, scale 0 to 100; for Plant response rating, Velvetleaf: 31 g ai/ha, scale 0 to 100 (0 no effect, 100 complete control)
Outline: as §2

[17] = test system: rice; assay: Test C flooded paddy test; assay type: in vivo, Oryza sativa; conditions: Flood
Outline: (§3)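 Flooded 3 cm over soil; compound into paddy water; depth kept constant. Greenhouse 13–15 d.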

[18] = test system: duck salad; assay: Test C flooded paddy test; assay type: in vivo, Heteranthera limosa; conditions: Flood
Outline: as §3

[19] = Postemergence, 125 g ai/ha, 0 is no effect, 100 is complete control
[20] = Postemergence, 500 g ai/ha, 0 is no effect, 100 is complete control
[21] = Preemergence, 125 g ai/ha, 0 no effect, 100 complete control
[22] = 62 g ai/ha, Preemergence, scale 0 to 100
[23] = preemergence, 125 g ai/ha, scale 0 (no effect) to 100 (complete control)
[24] = 31 g ai/ha, scale 0 to 100 (0 no effect, 100 complete control)
[25] = 62 g ai/ha, scale 0 to 100, 0 no effect, 100 complete control, 13 to 15 days
[26] = 125 g ai/ha, scale 0 to 100, 0 no effect, 100 complete control, 13 to 15 days
[27] = 250 g ai/ha, scale 0 to 100 (0 no effect, 100 complete control)
[28] = 250 g ai/ha, scale 0 to 100, 0 no effect, 100 complete control, 13 to 15 days

Cn1nc(C(F)(F)F)c(CS(=O)(=O)c2cccc[n+]2[O-])c1OCC(F)(F)F [Compound 29]
Barnyardgrass plant response rating [1, 19]: 80
Barnyardgrass plant response rating [1, 20]: 90
Barnyardgrass plant response rating [1, 21]: 100
Plant response rating, Barnyardgrass ([1]; Preemergence, 500 g ai/ha): 100
Pigweed plant response rating [2, 19]: 70
Pigweed plant response rating [2, 20]: 80
Pigweed plant response rating [2, 21]: 100
Plant response rating, Pigweed ([2]; Preemergence, 500 g ai/ha): 100
Velvetleaf plant response rating [3, 19]: 40
Velvetleaf plant response rating [3, 20]: 70
Velvetleaf plant response rating [3, 21]: 40
Plant response rating, Velvetleaf ([3]; Preemergence, 500 g ai/ha): 100
Bromegrass, Downy plant response rating [4, 22]: 20
Plant response rating, Bromegrass, Downy ([4]; Preemergence): 0
Plant response rating (0 to 100), Bromegrass, Downy ([4]; Preemergence): 60
Bromegrass, Downy plant response rating [4, 23]: 60
Foxtail, Green plant response rating [5]: 100
Plant response rating, Foxtail, Green [5]: 85
Plant response rating (0 to 100), Foxtail, Green ([5]; 250 g ai/ha): 100
Oat, Wild plant response rating [6]: 50
Plant response rating, Oat, Wild [6]: 20
Surinam Grass plant response rating [7]: 75
Plant response rating, Surinam Grass [7]: 75
Cocklebur plant response rating [8, 22]: 0
Plant response rating, Cocklebur ([8]; Preemergence): 0
Plant response rating (0 to 100), Cocklebur ([8]; Preemergence): 10
Cocklebur plant response rating [8, 23]: 0
Crabgrass, Large plant response rating [9]: 100
Plant response rating, Crabgrass, Large [9]: 100
Plant response rating (0 to 100), Crabgrass, Large [9]: 100
Foxtail, Giant plant response rating [10]: 100
Plant response rating, Foxtail, Giant [10]: 100
Plant response rating (0 to 100), Foxtail, Giant [10]: 100
Johnsongrass plant response rating [11]: 100
Plant response rating, Johnsongrass [11]: 100
Plant response rating (0 to 100), Johnsongrass [11]: 100
Kochia plant response rating [12]: 100
Plant response rating, Kochia [12]: 100
Lambsquarters plant response rating [13]: 0
Nightshade plant response rating [14]: 98
Plant response rating, Nightshade [14]: 75
Ragweed plant response rating [15]: 30
Velvetleaf plant response rating [16]: 100
Plant response rating, Velvetleaf [16]: 30
Plant response rating, Rice [17, 24]: 0
Plant response rating, Rice [17, 25]: 0
Plant response rating, Rice [17, 26]: 40
Plant response rating, Rice [17, 27]: 80
Plant response rating, Ducksalad [18, 24]: 70
Plant response rating, Ducksalad [18, 25]: 80
Plant response rating, Ducksalad [18, 27]: 90

Cc1cc[n+]([O-])c(S(=O)(=O)Cc2c(C(F)(F)F)nn(C)c2OCC(F)(F)F)c1 [Compound 31]
Barnyardgrass plant response rating [1, 19]: 70
Barnyardgrass plant response rating [1, 20]: 90
Barnyardgrass plant response rating [1, 21]: 100
Plant response rating, Barnyardgrass ([1]; Preemergence, 500 g ai/ha): 100
Pigweed plant response rating [2, 19]: 80
Pigweed plant response rating [2, 20]: 80
Pigweed plant response rating [2, 21]: 100
Plant response rating, Pigweed ([2]; Preemergence, 500 g ai/ha): 100
Velvetleaf plant response rating [3, 19]: 50
Velvetleaf plant response rating [3, 20]: 60
Velvetleaf plant response rating [3, 21]: 30
Plant response rating, Velvetleaf ([3]; Preemergence, 500 g ai/ha): 90
Bromegrass, Downy plant response rating [4, 22]: 50
Plant response rating, Bromegrass, Downy ([4]; Preemergence): 0
Plant response rating (0 to 100), Bromegrass, Downy ([4]; Preemergence): 80
Bromegrass, Downy plant response rating [4, 23]: 70
Foxtail, Green plant response rating [5]: 100
Plant response rating, Foxtail, Green [5]: 100
Oat, Wild plant response rating [6]: 60
Plant response rating, Oat, Wild [6]: 5
Surinam Grass plant response rating [7]: 100
Plant response rating, Surinam Grass [7]: 85
Cocklebur plant response rating [8, 22]: 0
Plant response rating, Cocklebur ([8]; Preemergence): 0
Plant response rating (0 to 100), Cocklebur ([8]; Preemergence): 50
Cocklebur plant response rating [8, 23]: 40
Crabgrass, Large plant response rating [9]: 100
Plant response rating, Crabgrass, Large [9]: 100
Plant response rating (0 to 100), Crabgrass, Large [9]: 100
Foxtail, Giant plant response rating [10]: 100
Plant response rating, Foxtail, Giant [10]: 100
Plant response rating (0 to 100), Foxtail, Giant [10]: 100
Johnsongrass plant response rating [11]: 100
Plant response rating, Johnsongrass [11]: 100
Plant response rating (0 to 100), Johnsongrass [11]: 100
Kochia plant response rating [12]: 100
Plant response rating, Kochia [12]: 100
Lambsquarters plant response rating [13]: 95
Plant response rating, Lambsquarters [13, 24]: 80
Nightshade plant response rating [14]: 95
Plant response rating, Nightshade [14]: 95
Ragweed plant response rating [15]: 10
Plant response rating, Ragweed [15, 24]: 0
Velvetleaf plant response rating [16]: 100
Plant response rating, Velvetleaf [16]: 55
Plant response rating, Rice [17, 24]: 0
Plant response rating, Rice [17, 25]: 0
Plant response rating, Rice [17, 26]: 60
Plant response rating, Rice [17, 28]: 70
Plant response rating, Ducksalad [18, 24]: 45
Plant response rating, Ducksalad [18, 25]: 45
Plant response rating, Ducksalad [18, 26]: 80
Plant response rating, Ducksalad [18, 28]: 90
